Data published in US8242054B2, “Plant growth regulator composition” (Snow Brand Seed Co., Ltd., priority 2008, dated 2012).

Tests used:
adzuki bean section [1] = experiment: adzuki bean root promotion assay (section immersion treatment, adventitious roots counted); format: in vivo; details: for Ratio to untreated group (%): untreated group = 100; for Relative value (%): 0/0 ppm group = 100
Description: An aqueous solution of DL-phenyllactic acid (Sigma-Aldrich Japan) and L-tryptophan (Wako Pure Chemical Industries, Ltd.) was prepared so that the total concentration of the compounds was 400 ppm and adjusted to pH 7 with hydrochloric acid, and the solution was subjected to an adzuki bean root promotion assay (Itagaki et al. 2003. Biological activities and structure-activity relationship of substitution compounds of N-[2-(3-indolyl)ethyl]succinamic acid and N-[2-(1-naphthyl)ethyl]succinamic acid, derived from a new category of root-promoting substance, N-(phenethyl) succinamic acid analogs. Plant Soil 255: 67-75). The base of an adzuki section was immersed in the test solution for 72 hours, and adventitious roots generated 7 days after immersion were counted. The repetition number was 5.
To study the cooperation effect of phenyllactic acid and aromatic amino acids other than L-tryptophan, each of 1 mM of DL-phenyllactic acid (Sigma-Aldrich Japan), L-tryptophan (Wako Pure Chemical Industries, Ltd.), L-phenylalanine (Wako Pure Chemical Industries, Ltd.), and L-tyrosine (Wako Pure Chemical Industries, Ltd.), and aqueous solutions obtained by adding the amino acids to DL-phenyllactic acid were prepared, and subjected to the adzuki bean root promotion assay in the same way as in Example 1.
To compare effects of combinations of tryptophan enantiomers and phenyllactic acid enantiomers, aqueous solutions of 400 ppm of L-tryptophan, D-tryptophan (Wako Pure Chemical Industries, Ltd.), L-phenyllactic acid (Sigma-Aldrich Japan), and D-phenyllactic acid (Sigma-Aldrich Japan) were prepared. Separately, aqueous solutions of 200 ppm of each of the tryptophan enantiomers and 200 ppm of each of the […] enantiomers were prepared and subjected to the adzuki bean root promotion assay in the same way as in Example 1. […]

plants = details: background art; cited from earlier work
adzuki bean section [2] = experiment: adzuki bean root promotion assay (section immersion treatment, adventitious roots counted); format: in vivo; details: for Relative value (%): 0/0 ppm group = 100; for Number of roots: 72 h immersion, counted 7 days after immersion
[3] = Table 4: each component present at 1 mM
[4] = Table 5: single enantiomer 400 ppm
[5] = Table 3: L-tryptophan 0 ppm, DL-phenyllactic acid 20 ppm
[6] = Table 3: L-tryptophan 1200 ppm, DL-phenyllactic acid 0 ppm

Row | Structure (SMILES) | Number of roots (adzuki bean section [1]; [3]) | Ratio to untreated group (%) (adzuki bean section [1]; [3]) | Number of roots (adzuki bean section [1]; [4]) | Relative value (%) (adzuki bean section [1]; [4]) | further results
1 | N[C@@H](Cc1ccc(O)cc1)C(=O)O [L-tyrosine] | 13.6 | 96% |  |  | 
2 | O=C(O)[C@@H](O)Cc1ccccc1 [L-phenyllactic acid] |  |  | 19.4 | 135% | 
3 | N[C@@H](Cc1ccccc1)C(=O)O [L-phenylalanine] | 16.6 | 117% |  |  | 
4 | N[C@H](Cc1c[nH]c2ccccc12)C(=O)O [D-tryptophan] |  |  | 24.2 | 168% | 
5 | O=C(O)C(O)Cc1ccccc1 (stereo not shown) [phenyllactic acid, 3-phenyllactic acid] |  |  |  |  | root promoting effect on plants (in words) (plants): the effect is weak
6 | O=C(O)[C@@H](O)Cc1ccccc1 [D-phenyllactic acid] |  |  | 27.6 | 192% | 
7 | O=C(O)C(O)Cc1ccccc1 (racemic) [DL-phenyllactic acid] | 18.8 | 132% |  |  | root promoting effect (in words) (adzuki bean section [1]; Table 1, only DL-phenyllactic acid): slight root promoting effect; Relative value (%) (adzuki bean section [1]; Table 1: L-tryptophan 0 ppm, DL-phenyllactic acid 400 ppm): 137%; Number of roots (adzuki bean section [1]; Table 1: L-tryptophan 0 ppm, DL-phenyllactic acid 400 ppm, 72 h immersion, counted 7 days after immersion): 22.4; Relative value (%) (adzuki bean section [1]; Table 2: L-tryptophan 0 ppm, DL-phenyllactic acid 400 ppm): 268%; Number of roots (adzuki bean section [1]; Table 2: L-tryptophan 0 ppm, DL-phenyllactic acid 400 ppm, 72 h immersion, counted 7 days after immersion): 32.2; Ratio to group treated with only DL-phenyllactic acid (%) (adzuki bean section [1]; Table 4: each component present at 1 mM, 1 mM DL-phenyllactic acid only = 100): 100%; Relative value (%) (adzuki bean section [2]; [5]): 107%; Number of roots (adzuki bean section [2]; [5]): 11.6
8 | N[C@@H](Cc1c[nH]c2ccccc12)C(=O)O [L-tryptophan] | 19.2 | 135% | 22.2 | 154% | Relative value (%) (adzuki bean section [1]; Table 1: L-tryptophan 400 ppm, DL-phenyllactic acid 0 ppm): 113%; Number of roots (adzuki bean section [1]; Table 1: L-tryptophan 400 ppm, DL-phenyllactic acid 0 ppm, 72 h immersion, counted 7 days after immersion): 18.6; Relative value (%) (adzuki bean section [1]; Table 3: L-tryptophan 400 ppm, DL-phenyllactic acid 0 ppm): 98%; Number of roots (adzuki bean section [1]; Table 3: L-tryptophan 400 ppm, DL-phenyllactic acid 0 ppm, 72 h immersion, counted 7 days after immersion): 10.6; Relative value (%) (adzuki bean section [2]; [6]): 139%; Number of roots (adzuki bean section [2]; [6]): 15.0
